From patent US9475789B2, “Use of polyenylpyrrole derivatives for treating inflammation” (WELLHEAD BIOLOGICAL TECHNOLOGY CORP., priority 2014, dated 2016)
“Also recorded” adds a separate entry of the source.

What was measured:
Type in all cases: cell-based, murine
ROS = experiment: Intracellular ROS production, ATP-activated J774A.1 macrophages
Procedure: In (A), J774A.1 macrophages (1×10^6/ml) were incubated with LPS (1 μg/ml) for 5.5 h and then incubated with compound 1 h ([…]), DPI (100 μM), or DMSO (vehicle) for 30 min followed by ATP (5 mM) stimulating for the indicated time, then ROS levels were measured by detection of the fluorescence intensity of the fluorophore carboxyl-DCF and expressed relative to those at time zero. In (B), J774A.1 macrophages (1×10^6/ml) were incubated with compound 1h (20 μM), DPI (100 μM), or DMSO (vehicle) for 30 min followed by LPS (1 μg/ml) stimulating for 5.5 h, then the cells were stimulated with ATP (5 mM) for the indicated time. The ROS levels were measured by detection of the fluorescence intensity of the fluorophore carboxyl-DCF and expressed relative to those at time zero. In (C), LPS-primed J774A.1 macrophages (1×10^6/ml) were incubated with compound 1h (20 μM) or DMSO (vehicle) for 30 min followed by ATP (5 mM) stimulating for 0-60 min, then the phosphorylation level of PKC-α was analyzed by Western blot.
Intracellular ROS stimulated by LPS was measured by detecting the fluorescence intensity of the 2′,7′-dichlorofluorescein diacetate (H2DCFDA) oxidized product (DCF) (Molecular Probes, Eugene, Oreg.). […]

IL-6 = IL-6 ELISA, RAW 264.7 macrophages
Procedure: The effects of tested samples on IL-1β, TNF-α and IL-6 production were measured by ELISA according to the manufacturer's instruction. In brief, 50 μl of biotinylated antibody reagent and 50 μl of supernatant were added to an anti-mouse IL-1β, TNF-α and IL-6 precoated stripwell plate, and incubated at room temperature for 2 h. After washing the plate three times with washing buffer, 100 μl of diluted streptavidin-HRP concentrate was added to each well and incubated at room temperature for 30 min. The washing process was repeated; then 100 μl of a premixed tetramethylbenzidine substrate solution was added to each well and developed at room temperature in the dark for 30 min. Following the addition of 100 μl of stop solution to each well to stop the reaction, the absorbance of the plate was measured by a microplate reader at 450 nm wavelength.

ERK1/2, JNK1/2, p38 = experiment: Western blot of MAPK phosphorylation, LPS-activated J774A.1 macrophages; details: LPS-activated J774A.1, LPS 20 min
Procedure: In (A), RAW 264.7 macrophages (5×10^5/ml) were incubated with compound 1h (20 μM), N-acetyl cysteine (NAC; 10 mM) or DMSO (vehicle) for 30 min followed by LPS (1 μg/ml) stimulating for the indicated time, then ROS levels were measured by detection of the fluorescence intensity of the fluorophore carboxyl-DCF and expressed relative to those at time zero. In (B), RAW 264.7 macrophages (5×10^5/ml) were incubated with compound 1h (20 μM) or DMSO for 30 min followed by LPS (1 μg/ml) stimulating for 0-60 min, then the phosphorylation levels of ERK1/2, JNK1/2, p38 were analyzed by Western blot. In (C), J774A.1 macrophages (5×10^5/ml) were incubated with compound 1h or DMSO for 30 min followed by LPS (1 μg/ml) stimulating for 20 min, then the phosphorylation levels of ERK1/2, JNK1/2, p38 were analyzed by Western blot.
(§1) Whole cell lysates were separated by SDS-PAGE and electrotransferred to a PVDF membrane. The membranes were incubated in blocking solution—5% nonfat milk in phosphate buffered saline with 0.1% Tween 20—at room temperature for 1 h. Each membrane was incubated with a specific primary antibody at room temperature for 2 h. After washing three times in PBS with 0.1% Tween 20, the membrane was incubated with an HRP-conjugated secondary antibody directed against the primary antibody. The membrane was developed by an enhanced chemiluminescence Western blot detection system.

IKK-α and IκB-α = experiment: Western blot of IKK-α and IκB-α, LPS-activated J774A.1 macrophages; details: LPS-activated J774A.1, LPS 20 min
Procedure: (A) RAW 264.7 macrophages (5×10^5/ml) or (B) J774A.1 macrophages (5×10^5/ml) were incubated with compound 1h or DMSO for 30 min followed by LPS (1 μg/ml) stimulating for 20 min, then the phosphorylation levels of IKK-α and IκB-α and total IκB-α protein level were analyzed by Western blot. (C) RAW 264.7 macrophages (5×10^5/ml) or (D) J774A.1 macrophages (5×10^5/ml) were incubated with compound 1h (10-40 μM) or DMSO for 30 min followed by LPS (1 μg/ml) stimulating for 20 min, then the nuclear translocation of NF-κB were analyzed by ELISA. (E) RAW-Blue™ cells (5×10^5/ml) were incubated with compound 1h (2.5-40 μM) or DMSO for 30 min followed by LPS (1 μg/ml) stimulating for 24 h, then the SEAP activity was measured by QUANTI-Blue™. […] In (C), (D), and (E), the data are expressed as the mean±SD for three separate experiments. *, **, and *** indicate a significant difference at the level of p<0.05, p<0.01, and p<0.001 respectively compared to LPS group.
as §1

Structure (SMILES): O=c1cc(O)cc(/C=C/C=C/C=C/C=C/c2[nH]ccc2Cl)o1 [Compound 1h]
- ATP-induced ROS production (ROS; J774A.1, compound 1h 20 μM added before LPS priming): inhibited ATP-induced ROS production significantly
- ATP-induced ROS production (ROS; LPS-primed J774A.1, compound 30 min before ATP stimulation): reduces ATP-induced ROS production slightly
- relative potency in decreasing IL-6 secretion (IL-6; LPS-activated RAW 264.7): more potent than 1i and 1n
- secretion of IL-6 (IL-6; LPS-activated RAW 264.7, LPS 1 μg/ml 24 h): decreased production; also recorded: decreased the secretion of IL-6 by LPS-activated RAW 264.7 macrophages in a dose-dependent manner
- background level of IL-6 (IL-6; compound alone, no LPS, data not shown): did not alter
- phosphorylation levels of ERK1/2, JNK1/2, p38 (ERK1/2, JNK1/2, p38): confirmed
- IκB-α degradation (IKK-α and IκB-α): partially rescued
- phosphorylation level of IKK-α (IKK-α and IκB-α): inhibited
- phosphorylation level of IκB-α (IKK-α and IκB-α): inhibited
